Patent publication US5324516A, “Galenic composition for decreasing blood alcohol concentration” (priority 1991, dated 1994)

Test: Test 3: effect of each of primary ingredients on blood ethanol concentration in rats
Assay type: in vivo, rat
Conditions: pueraria flower 0.28, phaseoli 0.39, pinelliae 0.09, fructose 1.2 g/kg
Protocol: The 50 g of pueraria flower was finely chopped and extracted with 11 of water at 100° C. for 2.5 hours. The extract was filtered and lyophilized in a freeze dryer. The 10.7 g of the powder was obtained.
The phaseoli radiati semen and pinelliae tuber were extracted and lyophilized in the same manner as described for puerariae flos. The 14.6 g and 7 g of powder were obtained from phaseoli radiati semen and pinelliae tuber, respectively.
The powder of pueraria flower, phaseoli radiati semen, pinelliae tuber, and fructose were dissolved in an adquate volume of water and administered to rats fasted 18 to 24 hours at a dose of 0.28 g, 0.39 g, 0.09 g and 1.2 g/kg body weight, respectively. The rats were treated in the same manner as Test 2.

Question: For O=C(CO)[C@@H](O)[C@H](O)[C@H](O)CO [Fructose], which “Alcohol concentration in blood” value (1 hr after 3 g/kg ethanol) is on record?
Answer: Its value is 1.984 g/L.

Question: What about the “Alcohol concentration in blood” value (2 hr after 3 g/kg ethanol) of the same compound?
Answer: The value was 1.654 g/L.

Question: What about the “Alcohol concentration in blood” value (4 hr after 3 g/kg ethanol) of the same compound?
Answer: Its value is 0.724 g/L.

Question: What about the “Alcohol concentration in blood” value (6 hr after 3 g/kg ethanol) of the same compound?
Answer: The value was 0.325 g/L.
